PubChem BioAssay AID328 (DTP/NCI, 2004)
Values joined by “and” are separate entries in the source; they are usually repeats but may differ in a detail not shown here. Equal values may be shown once. Toxic doses and inconclusive results are not listed.

Tested on: BDF1 mice, P388 leukemia ip, median survival T/C
Experiment: NCI In Vivo Anticancer Drug Screen. Data for tumor model P388 Leukemia (intraperitoneal) in B6D2F1 (BDF1) mice
Conditions: endpoint: median survival time, higher = longer survival
Procedure, shortened: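 Steps: implant the tumour, treat one group with compound and another with vehicle, record survival, then divide treated by control.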

[1] = dose: 50.0 mg/kg/injection, schedule: Q04DX003 (ip), vehicle: other
[2] = dose: 50.0 mg/kg/injection, schedule: Q01DX009 (ip), vehicle: saline with Tween-80
[3] = dose: 100.0 mg/kg/injection, schedule: Q01DX009 (ip), vehicle: saline with Tween-80
[4] = dose: 200.0 mg/kg/injection, schedule: Q01DX009 (ip), vehicle: saline with Tween-80
[5] = dose: 100.0 mg/kg/injection, schedule: Q04DX003 (ip), vehicle: saline with Tween-80
[6] = dose: 200.0 mg/kg/injection, schedule: Q04DX003 (ip), vehicle: saline with Tween-80
[7] = dose: 400.0 mg/kg/injection, schedule: Q01DX009 (ip), vehicle: saline with Tween-80
[8] = dose: 400.0 mg/kg/injection, schedule: Q04DX003 (ip), vehicle: saline with Tween-80
[9] = dose: 50.0 mg/kg/injection, schedule: Q04DX003 (ip), vehicle: Klucel (hydroxypropylcellulose) (HPC)
[10] = dose: 100.0 mg/kg/injection, schedule: Q04DX003 (ip), vehicle: Klucel (hydroxypropylcellulose) (HPC)
[11] = dose: 50.0 mg/kg/injection, schedule: Q01DX009 (ip), vehicle: other
[12] = dose: 200.0 mg/kg/injection, schedule: Q04DX003 (ip), vehicle: Klucel (hydroxypropylcellulose) (HPC)

In the case of `CCCS(=O)(=O)N(CC(=O)O)Cc1ccccc1`, the T/C (dose: 25.0 mg/kg/injection, schedule: Q04DX003 (ip), vehicle: other) is reported as 106 % of control, the T/C [1] is reported as 104 % of control and the T/C (dose: 100.0 mg/kg/injection, schedule: Q04DX003 (ip), vehicle: other) is reported as 100 % of control. The T/C (dose: 200.0 mg/kg/injection, schedule: Q04DX003 (ip), vehicle: other) was 106 % of control and the T/C (dose: 400.0 mg/kg/injection, schedule: Q04DX003 (ip), vehicle: other) was 106 % of control.

With `O=C(Nc1cccc(Cl)c1)ON1CCCCC1` the T/C [2] was 106 % of control, the T/C [3] was 97 % of control and the T/C [4] was 100 % of control.

With `CS(=O)(=O)OCCNC[C@@H](O)[C@@H](O)CNCCOS(C)(=O)=O` the T/C (dose: 0.17 mg/kg/injection, schedule: Q04DX003 (ip), vehicle: saline) was 121 % of control, the T/C (dose: 0.26 mg/kg/injection, schedule: Q04DX003 (ip), vehicle: saline) was 117 % of control and the T/C (dose: 0.4 mg/kg/injection, schedule: Q04DX003 (ip), vehicle: saline) was 154 % of control. For the same compound, the T/C (dose: 0.6 mg/kg/injection, schedule: Q04DX003 (ip), vehicle: saline) was 170 % of control, the T/C (dose: 0.92 mg/kg/injection, schedule: Q04DX003 (ip), vehicle: saline) was 175 % of control and the T/C (dose: 1.3 mg/kg/injection, schedule: Q04DX003 (ip), vehicle: saline) was 175 % of control. The T/C (dose: 2.1 mg/kg/injection, schedule: Q04DX003 (ip), vehicle: saline) was 186 % of control, the T/C (dose: 3.1 mg/kg/injection, schedule: Q04DX003 (ip), vehicle: saline) was 168 % of control and the T/C (dose: 11.0 mg/kg/injection, schedule: Q04DX003 (ip), vehicle: saline) was 200 % of control. The T/C (dose: 16.0 mg/kg/injection, schedule: Q04DX003 (ip), vehicle: saline) was 243 % of control and the T/C (dose: 33.0 mg/kg/injection, schedule: Q04DX003 (ip), vehicle: saline) was 300 % of control and 118 % of control.

`COc1cc(/C=N/NC(=O)c2ccccc2)cc(OC)c1OC` was tested, and the T/C [3] was 95 % of control, the T/C [5] was 109 % of control and the T/C [4] was 100 % of control. The T/C [6] was 104 % of control, the T/C [7] was 95 % of control and the T/C [8] was 90 % of control.

In the case of `C[C@]12CC[C@@H](O)C[C@H]1CC[C@@H]1[C@@H]2CC[C@]2(C)C(=O)CC[C@@H]12`, the T/C [3] is reported as 90 % of control, the T/C [5] is reported as 105 % of control and the T/C [4] is reported as 90 % of control. The T/C [6] was 100 % of control, the T/C [7] was 90 % of control and the T/C [8] was 100 % of control.

In the case of `CC(N)C(=O)O` (configuration not stated), the T/C (dose: 100.0 mg/kg/injection, schedule: Q01DX009 (ip), vehicle: saline) is reported as 91 % of control, the T/C (dose: 100.0 mg/kg/injection, schedule: Q04DX003 (ip), vehicle: saline) is reported as 88 % of control and the T/C (dose: 200.0 mg/kg/injection, schedule: Q01DX009 (ip), vehicle: saline) is reported as 108 % of control. The T/C (dose: 200.0 mg/kg/injection, schedule: Q04DX003 (ip), vehicle: saline) was 100 % of control and the T/C (dose: 400.0 mg/kg/injection, schedule: Q01DX009 (ip), vehicle: saline) was 100 % of control.

In the case of `CC(=O)Oc1cc(OCCCc2ccc(F)cc2)cc2ccc3ccccc3c12`, the T/C (dose: 25.0 mg/kg/injection, schedule: Q04DX002 (ip), vehicle: saline with Tween-80) is reported as 99 % of control, the T/C (dose: 50.0 mg/kg/injection, schedule: Q04DX002 (ip), vehicle: saline with Tween-80) is reported as 98 % of control and the T/C (dose: 100.0 mg/kg/injection, schedule: Q04DX002 (ip), vehicle: saline with Tween-80) is reported as 90 % of control.

`OCCNCCNCC[OH2+].OCCNCCNCC[OH2+].[Ni+2].[O-][Cl+3]([O-])([O-])[O-]` was tested, and the T/C (dose: 50.0 mg/kg/injection, schedule: Q01DX009 (ip), vehicle: saline) was 92 % of control.

In the case of `ClCCn1cnc2c(SCc3ccccc3)ncnc21`, the T/C [5] is reported as 100 % of control, the T/C [6] is reported as 100 % of control and the T/C [8] is reported as 100 % of control.

With `CC1=C(c2ccccc2)C(c2ccccc2)C(/C=C/c2ccccc2)=NC=C1c1ccccc1` (configuration not stated) the T/C [2] was 108 % of control, the T/C [3] was 94 % of control and the T/C [4] was 97 % of control.

For `CC(C)(C)OC(=O)NC(CCC(=O)O)(Cc1ccccc1)C(=O)NC(CCC(=O)OCc1ccccc1)C(=O)OCc1ccccc1` (configuration not stated), the T/C (dose: 100.0 mg/kg/injection, schedule: Q01DX005 (ip), vehicle: saline with Tween-80) was 86 % of control and the T/C (dose: 200.0 mg/kg/injection, schedule: Q01DX005 (ip), vehicle: saline with Tween-80) was 86 % of control.

With `COc1cccc(CCC(=O)O)c1OC` the T/C (dose: 25.0 mg/kg/injection, schedule: Q04DX003 (ip), vehicle: water) was 109 % of control, the T/C (dose: 50.0 mg/kg/injection, schedule: Q04DX003 (ip), vehicle: water) was 101 % of control and the T/C (dose: 100.0 mg/kg/injection, schedule: Q04DX003 (ip), vehicle: water) was 111 % of control. The T/C (dose: 200.0 mg/kg/injection, schedule: Q04DX003 (ip), vehicle: water) was 103 % of control and the T/C (dose: 400.0 mg/kg/injection, schedule: Q04DX003 (ip), vehicle: water) was 94 % of control.

With `COc1ccc2nc3c4ccccc4scc-3c2c1` the T/C (dose: 25.0 mg/kg/injection, schedule: Q04DX003 (ip), vehicle: Klucel (hydroxypropylcellulose) (HPC)) was 109 % of control, the T/C [9] was 109 % of control and the T/C [10] was 100 % of control. The T/C (dose: 148.5 mg/kg/injection, schedule: Q04DX003 (ip), vehicle: Klucel (hydroxypropylcellulose) (HPC)) was 109 % of control, the T/C (dose: 150.0 mg/kg/injection, schedule: Q04DX003 (ip), vehicle: Klucel (hydroxypropylcellulose) (HPC)) was 116 % of control and the T/C (dose: 225.0 mg/kg/injection, schedule: Q04DX003 (ip), vehicle: Klucel (hydroxypropylcellulose) (HPC)) was 100 % of control. The T/C (dose: 337.5 mg/kg/injection, schedule: Q04DX003 (ip), vehicle: Klucel (hydroxypropylcellulose) (HPC)) was 113 % of control.

`CCCCCCC[CH2][Sn](=[O])[CH2]CCCCCCC` was tested, and the T/C (dose: 3.12 mg/kg/injection, schedule: Q01DX009 (ip), vehicle: saline) was 120 % of control, the T/C (dose: 6.25 mg/kg/injection, schedule: Q01DX009 (ip), vehicle: saline) was 100 % of control and the T/C (dose: 12.5 mg/kg/injection, schedule: Q01DX009 (ip), vehicle: saline) was 115 % of control. The T/C (dose: 22.0 mg/kg/injection, schedule: Q04DX003 (ip), vehicle: other) was 109 % of control, the T/C (dose: 25.0 mg/kg/injection, schedule: Q01DX009 (ip), vehicle: Klucel (hydroxypropylcellulose) (HPC)) was 86 % of control and the T/C (dose: 33.0 mg/kg/injection, schedule: Q04DX003 (ip), vehicle: Klucel (hydroxypropylcellulose) (HPC)) was 100 % of control and 114 % of control. The T/C (dose: 33.0 mg/kg/injection, schedule: Q04DX003 (ip), vehicle: other) was 118 % of control, the T/C [1] was 100 % of control and the T/C [10] was 90 % of control.

For `CSC(c1ccccc1)=[N+]1CCOCC1`, the T/C [11] was 100 % of control, the T/C [9] was 100 % of control and the T/C (dose: 100.0 mg/kg/injection, schedule: Q01DX009 (ip), vehicle: other) was 118 % of control. The T/C [10] was 100 % of control, the T/C (dose: 200.0 mg/kg/injection, schedule: Q01DX009 (ip), vehicle: other) was 113 % of control and the T/C [12] was 90 % of control.

In the case of `OB(O)C1=CC(c2ccccc2)(c2ccccc2)N=C1`, the T/C (dose: 25.0 mg/kg/injection, schedule: Q01DX001 (ip), vehicle: saline sonified) is reported as 100 % of control, the T/C (dose: 50.0 mg/kg/injection, schedule: Q01DX001 (ip), vehicle: saline sonified) is reported as 100 % of control and the T/C (dose: 100.0 mg/kg/injection, schedule: Q01DX001 (ip), vehicle: saline sonified) is reported as 104 % of control.

For `CCOC(=O)c1cc(C=O)c[nH]1`, the T/C [2] was 93 % of control, the T/C [3] was 99 % of control and the T/C [4] was 101 % of control.

For `COc1cccc(CCC(=O)O)c1`, the T/C (dose: 100.0 mg/kg/injection, schedule: Q04DX003 (ip), vehicle: gum acacia) was 100 % of control, the T/C (dose: 200.0 mg/kg/injection, schedule: Q04DX003 (ip), vehicle: gum acacia) was 104 % of control and the T/C (dose: 400.0 mg/kg/injection, schedule: Q04DX003 (ip), vehicle: gum acacia) was 113 % of control.

For `O=C(Nc1ccccc1C(=O)c1ccccn1)c1ccccc1`, the T/C (dose: 100.0 mg/kg/injection, schedule: Q04DX003 (ip), vehicle: saline sonified) was 90 % of control, the T/C (dose: 200.0 mg/kg/injection, schedule: Q04DX003 (ip), vehicle: saline sonified) was 90 % of control and the T/C (dose: 400.0 mg/kg/injection, schedule: Q04DX003 (ip), vehicle: saline sonified) was 90 % of control.

For `CCCNC(=O)OCc1c(COC(=O)NCCC)c(-c2ccc(Cl)c(Cl)c2)n2c1CCC2`, the T/C (dose: 25.0 mg/kg/injection, schedule: Q01DX009 (ip), vehicle: other) was 151 % of control and the T/C [11] was 172 % of control.

In the case of `CCC(C(OC(=O)Nc1ccc(Cl)c(Cl)c1)c1ccc(Cl)cc1)C(O)(C(F)(F)F)C(F)(F)F` (configuration not stated), the T/C [10] is reported as 100 % of control, the T/C [12] is reported as 95 % of control and the T/C (dose: 400.0 mg/kg/injection, schedule: Q04DX003 (ip), vehicle: Klucel (hydroxypropylcellulose) (HPC)) is reported as 91 % of control.
